Converted amounts (≈) assume the structure as drawn.

Data set [1] can be described thus: Aqueous solubility (buffer vs acetonitrile/water, 24 h shaking, LC-UV). It counts as physicochemical. The note with it: kinetic from dmso stock, 2.5% DMSO, ">" = more than 90% dissolved. How it is done:
The aqueous solubility of the compounds of the invention is determined by comparing the amount dissolved in buffer to the amount in an acetonitrile/water (1/1) solution. Starting from a 10 mM DMSO stock solution aliquots are diluted with acetonitrile/water (1/1) or buffer resp. After 24 h of shaking, the solutions are filtrated and analyzed by LC-UV. The amount dissolved in buffer is compared to the amount in the acetonitrile solution.
Solubility is usually being measured from 0.001 to 0.125 mg/ml at a DMSO concentration of 2.5%. If more than 90% of the compound is dissolved in buffer, the value is marked with “>”.

The target in data set [2] is T1, AMPK complex 1 (containing alpha1beta1gamma1) (Homo sapiens, UniProt Q13131+Q9Y478).
T1 construct: GST (Glutathion S transferase) (N); made in house; host or cells: baculovirus; virus made in Sf9, expression in High Five cells
T1 sequence (Q13131 whole entry): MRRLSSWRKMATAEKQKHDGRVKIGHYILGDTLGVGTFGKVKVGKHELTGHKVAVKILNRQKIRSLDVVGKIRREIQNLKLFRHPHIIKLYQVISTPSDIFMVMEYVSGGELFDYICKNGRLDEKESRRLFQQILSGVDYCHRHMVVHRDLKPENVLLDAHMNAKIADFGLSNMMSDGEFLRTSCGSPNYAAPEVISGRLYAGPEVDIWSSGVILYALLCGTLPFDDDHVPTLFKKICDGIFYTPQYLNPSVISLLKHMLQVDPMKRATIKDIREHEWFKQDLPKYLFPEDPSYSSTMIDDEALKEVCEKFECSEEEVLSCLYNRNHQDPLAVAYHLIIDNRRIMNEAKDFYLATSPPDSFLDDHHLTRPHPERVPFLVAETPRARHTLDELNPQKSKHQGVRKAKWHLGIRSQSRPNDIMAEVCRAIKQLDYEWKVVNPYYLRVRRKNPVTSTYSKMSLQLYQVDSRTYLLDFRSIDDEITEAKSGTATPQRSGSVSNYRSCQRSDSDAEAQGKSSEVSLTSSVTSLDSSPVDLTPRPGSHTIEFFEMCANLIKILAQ
T1 sequence (Q9Y478 whole entry): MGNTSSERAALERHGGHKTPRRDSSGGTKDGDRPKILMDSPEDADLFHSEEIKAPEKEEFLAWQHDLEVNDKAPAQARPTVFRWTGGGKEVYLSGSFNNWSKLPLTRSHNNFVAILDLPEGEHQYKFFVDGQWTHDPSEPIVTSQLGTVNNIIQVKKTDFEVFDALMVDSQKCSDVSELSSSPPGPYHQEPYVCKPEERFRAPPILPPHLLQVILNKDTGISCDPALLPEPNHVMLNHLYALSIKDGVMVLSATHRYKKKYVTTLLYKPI
T1 sequence (P54619 whole entry partner): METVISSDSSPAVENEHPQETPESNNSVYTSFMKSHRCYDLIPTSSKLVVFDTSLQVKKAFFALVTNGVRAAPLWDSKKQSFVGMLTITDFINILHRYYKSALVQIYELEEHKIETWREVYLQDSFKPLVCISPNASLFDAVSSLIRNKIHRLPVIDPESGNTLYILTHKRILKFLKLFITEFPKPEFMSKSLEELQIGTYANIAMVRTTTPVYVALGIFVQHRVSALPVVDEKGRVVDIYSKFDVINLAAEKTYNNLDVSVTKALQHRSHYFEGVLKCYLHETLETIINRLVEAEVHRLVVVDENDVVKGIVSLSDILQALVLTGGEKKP
Put plainly: In vitro AMPK activation assay (ADP-Glo Kinase Assay). It counts as biochemical. The note with it: 30 μM ATP, 1 μM peptide, 60 min, room temperature. The source says: Activated AMPK complex 1 (containing alpha1beta1gamma1) was obtained from baculovirus expression system. The gene encoding AMPK alpha1 was cloned into the pACG2T vector (BD Biosciences) to obtain a N-terminal Glutathion S transferase (GST)-fusion protein. The genes encoding AMPK beta 1 and gamma1 were cloned into the p2Bac dual multiple cloning site vector (Invitrogen) with beta1 under the control of the p10 promoter and gamma1 under the control of the PH promoter. The transfer vectors containing AMPK were co-transfected individually with AcPNV BacMagic-3 DNA (EMD Millipore) in Sf9 cells and the recombinant baculoviruses were harvested after 5 days, followed by 3 rounds of amplification of the virus stock in Sf9 cells. AMPK (alpha1beta1gamma1) was expressed in High Five 5 cells by co-infection of recombinant alpha1 virus and recombinant beta1/gamma1 virus for 72 h at 27° C. Cells were harvested by centrifugation and lysed by 3 freeze/thaw cycles in PBS with 10% glycerol and protease inhibitor cocktail (Roche). After centrifugation AMPK a1b1g1 in the supernatant was captured by immobilized glutathione (GE Healthcare), impurities were washed away with PBS and AMPK alpha1beta1gamma1 was eluted with PBS containing 20 mM reduced gluthathione. The protein buffer was then exchanged to PBS with 10% glycerol and protein concentration was determined by UV absorbance.
The white 384-well Optiplates (cat.no. 6007299) were purchased from PerkinElmer. The V9101 ADP-Glo Kinase Assay and ultra pure ATP (V915A) was purchased from Promega. The substrate for AMPK (NH2-HMRSAMSGLHLVKRR_CONH2) was purchased from Upstate (12-355).
Compounds were tested in either serial dilutions or single dose concentrations. The serial compound dilutions were prepared in 100% DMSO automatically. The final DMSO concentration in the assay was 0.1%.
The Compound Stock Solutions were 10 mM in 100% DMSO. The compounds were solubilised at room temperature.
In the 384-well plates 1.25 ul of test compound in assay buffer was mixed with 1.25 ul of AMPK and 1.25 μl of the peptide (final concentration of 1 μM) and 1.25 μl of ATP (final concentration of 30 μM), both dissolved in assay buffer. This step was followed by an incubation time of 60 min. Then 5 μl of ADP Glo Reagent was added. This was followed by 40 min of incubation. Then 10 μl of Kinase Detection Reagent was admixed. The plates were sealed and after an incubation period of 30 min, the luminescence signal was measured in an Envision reader. All incubation steps were accomplished at room temperature.
Each assay microtiter plate contained wells with vehicle controls instead of compound (0.1% DMSO in water) as reference for the low signal (100% CTL, low signal), and wells with serial dilutions of AMP (final 30 μM) as reference for high signals.
The luminescence signal generated was proportional to the ADP concentration produced and was correlated with AMPK activity. The analysis of the data was performed by the calculation of the percentage of ATP consumption of AMPK in the presence of the test compound compared to the consumption of ATP in the presence of AMPK without compound. (RLU(sample)/RLU(low control))*100[RLU=relative luminescence units]
An activator of the AMPK enzyme gave values above 100% CTL.
EC50 values based on dose response curves are calculated with the XIFIT software using the 4 Parameter Logistic Model or Sigmoidal Dose-Response Model.
(In ADP-Glo the light output rises with the ADP produced.)

As for `CS(=N)(=O)c1ccc(-c2ccc(-c3nc4[nH]c(O[C@@H]5CO[C@H]6[C@@H]5OC[C@H]6O)nc4cc3Cl)cc2)cc1` (stereo partly drawn) [Example 23, (3R,3aR,6R,6aR)-6-(6-Chloro-5-(4′-(S-methylsulfonimidoyl)biphenyl-4-yl)-3H-imidazo[4,5-b]pyridin-2-yloxy)hexahydrofuro[3,2-b]furan-3-ol], the solubility – broadly, the concentration that dissolves in the medium under given conditions – at 24 h was 69 µg/mL (≈ 131 µM) in data set [1] (pH 2.2 buffer), 2 µg/mL (≈ 3.8 µM) in data set [1] (pH 4.5 buffer) and 1 µg/mL (≈ 1.9 µM) in data set [1] (pH 6.8 buffer). Moreover, it took 10 nM to reach a half-maximal effect in data set [2] (EC50).
The matching figures for `CS(C)(=O)=Nc1cc(-c2ccc(-c3nc4[nH]c(O[C@@H]5CO[C@H]6[C@@H]5OC[C@H]6O)nc4cc3Cl)cc2)ccn1` [Example 36, N-(4-{4-[6-Chloro-2-((3R,3aR,6R,6aR)-6-hydroxyhexahydrofuro[3,2-b]furan-3-yloxy)-3H-imidazo[4,5-b]pyridin-5-yl]-phenyl}-pyridin-2-yl)-S,S-dimethylsulfoximide]: 99 µg/mL (≈ 183 µM), below 1 µg/mL, below 1 µg/mL and 15 nM.
The matching figures for `CN=S(C)(=O)c1ccc(-c2ccc(-c3nc4[nH]c(O[C@@H]5CO[C@H]6[C@@H]5OC[C@H]6O)nc4cc3Cl)cc2)nc1` (stereo partly drawn) [Example 28, (3R,3aR,6R,6aR)-6-(6-Chloro-5-(4-(5-(N,S-dimethylsulfonimidoyl)pyridin-2-yl)phenyl)-3H-imidazo[4,5-b]pyridin-2-yloxy)hexahydrofuro[3,2-b]furan-3-ol]: 92 µg/mL (≈ 170 µM), below 1 µg/mL, below 1 µg/mL and 2 nM.
The matching figures for `CS(=N)(=O)c1ccc(-c2ccc(-c3nc4[nH]c(O[C@@H]5CO[C@H]6[C@@H]5OC[C@H]6O)nc4cc3Cl)cc2)nc1` (some centres unmarked) [Example 27]: 77 µg/mL (≈ 146 µM), below 1 µg/mL, below 1 µg/mL and 4 nM.
Take `CS(C)(=O)=NCc1ccc(-c2ccc(-c3nc4[nH]c(O[C@@H]5CO[C@H]6[C@@H]5OC[C@H]6O)nc4cc3Cl)cc2)cn1` [Example 51, N-(5-{4-[6-Chloro-2-((3R,3aR,6R,6aR)-6-hydroxyhexahydrofuro[3,2-b]furan-3-yloxy)-3H-imidazo[4,5-b]pyridin-5-yl]-phenyl}-pyridin-2-ylmethyl)-S,S-dimethylsulfoximide]: the solubility at 24 h was above 146 µg/mL in data set [1] (pH 2.2 buffer), 28 µg/mL (≈ 50.4 µM) in data set [1] (pH 4.5 buffer) and 2 µg/mL (≈ 3.6 µM) in data set [1] (pH 6.8 buffer). Further, the response in data set [2] was half-maximal at 92 nM (EC50).
The matching figures for `CS(C)(=O)=Nc1ccc(-c2ccc(-c3nc4[nH]c(O[C@@H]5CO[C@H]6[C@@H]5OC[C@H]6O)nc4cc3Cl)cc2)nn1` [Example 50, N-(6-{4-[6-Chloro-2-((3R,3aR,6R,6aR)-6-hydroxyhexahydrofuro[3,2-b]furan-3-yloxy)-3H-imidazo[4,5-b]pyridin-5-yl]-phenyl}-pyridazin-3-yl)-S,S-dimethylsulfoximide]: above 128 µg/mL, above 117 µg/mL, 88 µg/mL (≈ 162 µM) and 304 nM.
Regarding `CS(C)(=O)=Nc1cnc(-c2ccc(-c3nc4[nH]c(O[C@@H]5CO[C@H]6[C@@H]5OC[C@H]6O)nc4cc3Cl)cc2)nc1` [Example 34, N-(2-{4-[6-Chloro-2-((3R,3aR,6R,6aR)-6-hydroxyhexahydrofuro[3,2-b]furan-3-yloxy)-3H-imidazo[4,5-b]pyridin-5-yl]-phenyl}-pyrimidin-5-yl)-S,S-dimethylsulfoximide], the solubility at 24 h stood at 4 µg/mL (≈ 7.37 µM) in data set [1] (pH 2.2 buffer), 5 µg/mL (≈ 9.21 µM) in data set [1] (pH 4.5 buffer) and 13 µg/mL (≈ 23.9 µM) in data set [1] (pH 6.8 buffer). Also, the EC50 (as a rule, the concentration needed to bring the measured effect to its halfway point) in data set [2] worked out at 3 nM.
The matching figures for `CS(=N)(=O)Cc1ccc(-c2ccc(-c3nc4[nH]c(O[C@@H]5CO[C@H]6[C@@H]5OC[C@H]6O)nc4cc3Cl)cc2)cc1` (stereo partly drawn) [Example 52, (3R,3aR,6R,6aR)-6-(6-Chloro-5-(4′-(S-methylsulfonimidoylmethyl)biphenyl-4-yl)-3H-imidazo[4,5-b]pyridin-2-yloxy)hexahydrofuro[3,2-b]furan-3-ol]: 42 µg/mL (≈ 77.6 µM), below 1 µg/mL, below 1 µg/mL and 3 nM.
For the compound `CS(=O)(=NC#N)c1ccc(-c2ccc(-c3nc4[nH]c(O[C@@H]5CO[C@H]6[C@@H]5OC[C@H]6O)nc4cc3Cl)cc2)cc1` (stereo partly drawn) [Example 7, S-(4′-(6-Chloro-2-((3R,3aR,6R,6aR)-6-hydroxyhexahydrofuro[3,2-b]furan-3-yloxy)-3H-imidazo[4,5-b]pyridin-5-yl)biphenyl-4-yl)-S-methyl-N-cyano-sulfoximide], the solubility at 24 h was 15 µg/mL (≈ 27.2 µM) in data set [1] (pH 2.2 buffer), below 1 µg/mL in data set [1] (pH 4.5 buffer) and below 1 µg/mL in data set [1] (pH 6.8 buffer). Besides, the response in data set [2] was half-maximal at 1 nM (EC50).
For `CS(=O)(=Nc1ccc(-c2ccc(-c3nc4[nH]c(O[C@@H]5CO[C@H]6[C@@H]5OC[C@H]6O)nc4cc3Cl)cc2)cc1)C1CC1` (stereo partly drawn) [Example 15, N-(4′-(6-Chloro-2-((3R,3aR,6R,6aR)-6-hydroxyhexahydrofuro[3,2-b]furan-3-yloxy)-3H-imidazo[4,5-b]pyridin-5-yl)biphenyl-4-yl)-S-cyclopropyl-S-methylsulfoximide], the EC50 in data set [2] is 41 nM.
Same read-out and setting: next, `CS(=O)(=NC(=O)c1ccc(-c2nc3[nH]c(O[C@@H]4CO[C@H]5[C@@H]4OC[C@H]5O)nc3cc2Cl)cc1)c1cccnc1` (stereo partly drawn) [Example 19, N-4-(6-Chloro-2-((3R,3aR,6R,6aR)-6-hydroxyhexahydrofuro[3,2-b]furan-3-yloxy)-3H-imidazo[4,5-b]pyridin-5-yl)benzoyl-S-methyl-S-(pyridin-3-yl)-sulfoximine]: 55 nM; `N=S1(=O)CC=C(c2ccc(-c3nc4[nH]c(O[C@@H]5CO[C@H]6[C@@H]5OC[C@H]6O)nc4cc3Cl)cc2)CC1` (some centres unmarked) [Example 40]: 50 nM.
Still for that read-out and setting: for `CS(C)(=O)=Nc1ccc(-c2ncc(-c3nc4[nH]c(O[C@@H]5CO[C@H]6[C@@H]5OC[C@H]6O)nc4cc3Cl)cn2)cc1` [Example 42, N-(4-{5-[6-Chloro-2-((3R,3aR,6R,6aR)-6-hydroxyhexahydrofuro[3,2-b]furan-3-yloxy)-3H-imidazo[4,5-b]pyridin-5-yl]-pyrimidin-2-yl}-phenyl)-S,S-dimethylsulfoximide] the value was 410 nM; for `CS(C)(=O)=Nc1ccc(-c2ccc(-c3nc4[nH]c(O[C@@H]5CO[C@H]6[C@@H]5OC[C@H]6O)nc4cc3Cl)cn2)cc1` [Example 32, N-(4-{5-[6-Chloro-2-((3R,3aR,6R,6aR)-6-hydroxyhexahydrofuro[3,2-b]furan-3-yloxy)-3H-imidazo[4,5-b]pyridin-5-yl]-pyridin-2-yl}-phenyl)-S,S-dimethylsulfoximide], 13 nM.
